In patent US20230265068A1, “TRANSIENT RECEPTOR POTENTIAL CANONICAL 3 INHIBITORS AND METHODS OF USE THEREOF” (University of Tennessee Research Foundation, priority 2020, published 2023):
Like-named read-outs stand apart in the source and are kept apart here.

Legend:
[1] = metabolic stability in mouse liver microsomes; type: in vitro ADME; settings: mouse, microsomes
Procedure: (§1) The metabolic stability of compound 22 was tested prior to the next phase of in vivo study. […] The maximum tolerated dose (MTD) study was subsequently performed to investigate its in vivo toxicity (FIGS. 4A and 4B). The second major limitation of Pyr3 is its toxicity due to its alkylating tail moiety. While replacing only the fast-metabolizing head ester group in Pyr3 with a stable amide (compound 79) improved metabolic stability, a single IP injection of compound 79 at 200 mg/kg killed all mice within 24 h.

[2] = metabolic stability in rat liver microsomes; type: in vitro ADME; settings: rat, microsomes
Procedure: as §1

[3] = maximum tolerated dose / in vivo toxicity study in mice; settings: 200 mg/kg/day IP for five consecutive days
Procedure: The in vivo study was performed in compliance with the NIH Animal Use Guidelines and protocol approved by the Institutional Animal Care and Use Committee (IACUC) at the University of Tennessee Health Science Center (UTHSC, Memphis, Tenn.). NSG mice at 8 weeks (n=2) and ICR mice at 12 weeks (n=3) were housed with a 12:12-hour light-dark cycle and fed a breeder chow diet. Daily IP injections of 200 mg/kg of compounds 22 or 79 were administered for five consecutive injections in five mice, respectively, which were followed to monitor the mortality rate. Body weights of the mice were recorded daily.
as §1
Compound 79 is a metabolically stable version of Pyr3. Mice treated daily with compound 22 or compound 79 (n=5) for 5 consecutive days. All the mice were treated with either compound 22 or 79 at 200 mg/kg (IP). […]

TRPC3 = target: T1, TRPC3 (Homo sapiens, UniProt Q13507); test: whole-cell patch clamp of HEK293 cells transfected with hTRPC3, currents activated by GSK1702934A; type: cell-based; design: expressed in transfected cells; host or cells: HEK293 (CRL-1573), transient transfection, pMO vector
T1 sequence (Q13507 1-921): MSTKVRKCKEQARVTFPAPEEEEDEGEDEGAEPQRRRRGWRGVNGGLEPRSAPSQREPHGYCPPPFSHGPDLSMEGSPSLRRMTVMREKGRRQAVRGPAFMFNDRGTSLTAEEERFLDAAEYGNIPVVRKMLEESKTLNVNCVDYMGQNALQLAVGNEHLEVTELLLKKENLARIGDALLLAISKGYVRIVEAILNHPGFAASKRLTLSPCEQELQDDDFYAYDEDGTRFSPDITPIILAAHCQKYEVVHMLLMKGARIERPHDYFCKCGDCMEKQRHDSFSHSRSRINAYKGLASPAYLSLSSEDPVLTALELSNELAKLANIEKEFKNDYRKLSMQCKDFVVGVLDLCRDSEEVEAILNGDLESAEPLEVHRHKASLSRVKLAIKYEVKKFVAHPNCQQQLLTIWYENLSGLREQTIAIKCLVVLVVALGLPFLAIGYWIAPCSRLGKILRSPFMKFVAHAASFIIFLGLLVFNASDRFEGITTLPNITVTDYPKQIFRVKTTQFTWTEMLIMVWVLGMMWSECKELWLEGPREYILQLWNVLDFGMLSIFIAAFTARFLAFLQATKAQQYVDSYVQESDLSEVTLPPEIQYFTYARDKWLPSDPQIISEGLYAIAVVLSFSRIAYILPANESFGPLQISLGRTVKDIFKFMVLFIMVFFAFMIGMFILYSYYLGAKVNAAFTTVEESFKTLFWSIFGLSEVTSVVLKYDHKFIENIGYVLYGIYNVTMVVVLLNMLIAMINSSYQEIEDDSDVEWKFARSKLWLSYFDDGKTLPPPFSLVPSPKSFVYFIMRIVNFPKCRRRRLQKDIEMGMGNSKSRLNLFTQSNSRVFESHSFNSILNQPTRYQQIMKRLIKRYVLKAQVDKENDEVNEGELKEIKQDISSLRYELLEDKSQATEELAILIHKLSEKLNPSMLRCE
How it was run: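 Whole-cell patch clamp on HEK293 cells co-transfected with hTRPC3 and GFP, recorded 18-24 h post-transfection. Bath held 140 mM NaCl, pH 7.4; pipette held 140 mM CsCl/5 mM EGTA, pH 7.2. Currents came from 1-s ramps −100 to 100 mV with GSK1702934A; compounds screened at 10 μM, IC50 from single-cell dose points.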

CCNC(=O)c1cnn(-c2ccc(-n3ccc(Cl)c(Cl)c3=O)cc2)c1C(F)(F)F [Compound 22]
half-life [1]: > 4 h
half-life [2]: > 4 h
acute toxicities / body weight loss [3]: no acute toxicities or body weight loss
inhibition at 10 µM (TRPC3; 10 μM compound in presence of agonist GSK1702934A, HEK293 whole-cell peak current, read-out: hTRPC3 % Inhibition at 10 μM (mean ± SEM)): 89 ± 1.14%
IC50 (TRPC3; agonist GSK1702934A, HEK293 whole-cell patch clamp, read-out: hTRPC3 IC50 (μM, mean ± SEM)): 0.37 ± 0.03 µM
IC50 (TRPC3; same value expressed in ng/ml, read-out: TRPC3 IC50 displayed in FIG. 6 (converted)): 0.51 µM
IC50 (TRPC3; value shown in brain concentration figure, read-out: TRPC3 IC50 displayed in FIG. 6 (converted)): 0.51 µM
